One compound from patent publication US8748497B2, “Optimized fluorocarbon emulsions for blood substitutes and other therapeutic uses” (Alliance Pharmaceutical Corp., priority 2006, dated 2014) can be followed below.

The structures appear in SMILES notation.

The data set is described as follows: intravascular persistence of PFOB and PFDB after 60/30% w/v PFOB/PFDB emulsion. The data set is classed as in vivo. The following applies: rats. From the text: FIG. 4 represents typical data for the removal of both PFOB and PFDB. […] In general, the rate constant for PFDB removal is 20-30% less than that of PFOB.
The emulsion composition with the data shown in FIG. 4 contains a 60/30% (w/v) ratio of PFOB/PFDB stabilized by 6% w/v EYP. In this case, the rate constant for PFDB removal is 20% higher than that of PFOB. It might be assumed that in the first few hours after administration that the removal from blood is controlled by k12 (see FIG. 1). The fluorochemical composition of circulating emulsion droplets should, therefore, remain intact. How is it then that the two disperse phase components could have different rate constants? To answer this question, the composition of the intravenously administered droplets can be examined through the use of sedimentation field-flow fractionation (SdFFF) coupled with gas chromatography, thereby confirming the nature of the droplets.

On to `FC(F)(F)C(F)(F)C(F)(F)C(F)(F)C(F)(F)C(F)(F)C(F)(F)C(F)(F)C(F)(F)C(F)(F)Br` [PFDB, perfluorodecyl bromide], for which, for the setting “in general”, the “rate constant for removal, less than that of PFOB” value was 20-30%. In addition, the “rate constant for removal, higher than that of PFOB” value (in this case (FIG. 4), 60/30% w/v PFOB/PFDB, 6% w/v EYP) amounted to 20%.
